Measured values from the Deep4Chem optical property database.
Blank lines part the entries; values can stand above or below the molecule they belong to.

Experiment: photoluminescence quantum yield (fraction); solvent given as SMILES

photoluminescence quantum yield (in ClCCl): 0.22
SMILES: CCCCC(CC)COc1cc(OCC(CC)CCCC)c2c#cc3ccc4sc5ccc(c#cc6cc(c#cc7ccc8sc9ccc(c#cc1c2)cc9c8c7)c(C(CCCC)OCCC)cc6C(CCCC)OCCC)cc5c4c3 (configuration not stated)

photoluminescence quantum yield (in C1CCOC1): 0.84
SMILES: C[Si](C)(C)c1ccc(-c2ccc(-c3ccc(-c4ccc(-c5ccc([Si](C)(C)C)cc5)cc4)c4nsnc34)cc2)cc1

photoluminescence quantum yield (in CC#N): 0.22
photoluminescence quantum yield (in ClC(Cl)Cl): 0.34
SMILES: F[B-]1(F)n2c(-c3ccccc3)cc(-c3ccccc3)c2N=C2C(c3ccccc3)=CC(c3ccccc3)=[N+]21

photoluminescence quantum yield (in CC#N): 0.1
photoluminescence quantum yield (in CCO): 0.04
photoluminescence quantum yield (in ClCCl): 0.13
photoluminescence quantum yield (in O): 0.006
SMILES: C=CCNc1ccc2ccc3oc4cc(=[N+]5CCCC5)ccc-4nc3c2c1

photoluminescence quantum yield (in C1CCCCC1): 0.55
photoluminescence quantum yield (in CC#N): 0.04
photoluminescence quantum yield (in CO): 0.14
photoluminescence quantum yield (in ClC(Cl)Cl): 0.08
SMILES: CC1(C)CC(NCc2ccc3ccc4cccc5ccc2c3c45)CC(C)(C)N1

photoluminescence quantum yield (in C1COCCO1): 0.61
SMILES: CCC12C(=C3C(=C4c5ccc(-c6ccc(C(C)=O)s6)cc5S(=O)(=O)C41CC)C(F)(F)C(F)(F)C3(F)F)c1ccc(-c3ccc(C(C)=O)s3)cc1S2(=O)=O (configuration not stated)

photoluminescence quantum yield (in ClCCl): 0.46
SMILES: CC(C)[Si](C#Cc1cc2c3c(c1)c(=C1c4ccccc4Sc4ccccc41)c1cc(C#C[Si](C(C)C)(C(C)C)C(C)C)cc4c1N3c1c(cc(C#C[Si](C(C)C)(C(C)C)C(C)C)cc1c4=C1c3ccccc3Sc3ccccc31)c2=C1c2ccccc2Sc2ccccc21)(C(C)C)C(C)C

photoluminescence quantum yield (in ClCCl): 0.008
SMILES: Cc1ccc(/C2=C3N=C(C(c4ccccc4)=C/3c3ccccc3)/C(c3ccc(C)cc3)=c3\[nH]/c(c(-c4ccccc4)c3-c3ccccc3)=C(/c3ccc(C)cc3)C3=N/C(=C(/c4ccc(C)cc4)c4[nH]c2c(-c2ccccc2)c4-c2ccccc2)C(c2ccccc2)=C3c2ccccc2)cc1

photoluminescence quantum yield (in ClCCl): 0.12
SMILES: O=C(Nc1ccccc1[N+](=O)[O-])c1ccc2oc(-c3cc4ccccc4oc3=O)nc2c1

photoluminescence quantum yield (in C1CCCCC1): 0.031
photoluminescence quantum yield (in CC#N): 0.057
photoluminescence quantum yield (in CCO): 0.068
photoluminescence quantum yield (in c1ccccc1): 0.055
SMILES: Nc1cccc2c1C(=O)c1ccccc1-2

SMILES: N#Cc1c(C#N)c(-n2c3ccccc3c3ccccc32)c(-n2c3ccccc3c3ccccc32)c(-n2c3ccccc3c3ccccc32)c1-n1c2ccccc2c2ccccc21
photoluminescence quantum yield (in Cc1ccccc1): 0.744

photoluminescence quantum yield (in CC#N): 0.43
SMILES: CC(C)Oc1ccc(C#Cc2cc3ccccc3oc2=O)cc1

SMILES: CC1(C)c2ccccc2N(c2ccc(C(=O)c3cc(C(=O)c4ccc(N5c6ccccc6C(C)(C)c6ccccc65)cc4)cc(C(=O)c4ccc(N5c6ccccc6C(C)(C)c6ccccc65)cc4)c3)cc2)c2ccccc21
photoluminescence quantum yield (in Cc1ccccc1): 0.189
photoluminescence quantum yield (in c1ccc2c(c1)c1ccccc1n2-c1ccc(-c2ccc(-n3c4ccccc4c4ccccc43)cc2)cc1): 0.856

SMILES: c1ccc(-c2ccccc2)cc1
photoluminescence quantum yield (in C1CCCCC1): 0.25
photoluminescence quantum yield (in C1COCCO1): 0.18

SMILES: COc1ccc(-c2nc3ccccc3nc2/C=C/N2CCCC2)s1
photoluminescence quantum yield (in C1CCCCC1): 0.072
photoluminescence quantum yield (in C1CCOC1): 0.155
photoluminescence quantum yield (in CC#N): 0.21
photoluminescence quantum yield (in CC(C)=O): 0.209
photoluminescence quantum yield (in CCO): 0.031
photoluminescence quantum yield (in CO): 0.009
photoluminescence quantum yield (in CS(C)=O): 0.184
photoluminescence quantum yield (in Cc1ccccc1): 0.095
photoluminescence quantum yield (in ClCCl): 0.19

photoluminescence quantum yield (in ClC(Cl)Cl): 0.57
SMILES: F[B-]1(F)OC(c2cc3c4c(c2)CCCN4CCC3)=Cc2cccc[n+]21

photoluminescence quantum yield (in CS(C)=O): 0.53
SMILES: N#Cc1c(/C=C/c2ccc(N(c3ccccc3)c3ccccc3)cc2)cc(-c2cccs2)cc1N1CCCCC1

photoluminescence quantum yield (in C1CCCCC1): 0.58
photoluminescence quantum yield (in CC#N): 0.51
photoluminescence quantum yield (in CCO): 0.5
photoluminescence quantum yield (in CCOC(C)=O): 0.54
SMILES: COC(=O)c1nc(-c2cccc3ccccc23)oc1C

photoluminescence quantum yield (in C1COCCO1): 0.53
photoluminescence quantum yield (in CC#N): 0.45
photoluminescence quantum yield (in CCCCOCCCC): 0.49
photoluminescence quantum yield (in CCOC(C)=O): 0.43
SMILES: Clc1nc(Nc2ccccc2)nc(Nc2ccc3c4cccc5cccc(c6cccc2c63)c54)n1

photoluminescence quantum yield (in ClC(Cl)Cl): 0.63
SMILES: CC(C)C1=c2c(c3[nH]cc(C(C)C)c3c3ccccc23)=[N+]2C1=Cc1c(C(C)C)c3c4ccccc4c4c(C(C)C)c[nH]c4c3n1[B-]2(F)F

photoluminescence quantum yield (in ClC(Cl)Cl): 0.1
SMILES: CC(C)C[Si](C#Cc1c2c(=O)c3ccccc3c2c(C#C[Si](CC(C)C)(CC(C)C)CC(C)C)c2c(=O)c3ccccc3c12)(CC(C)C)CC(C)C

SMILES: Oc1ccc2ncccc2c1
photoluminescence quantum yield (in CC#N): 0.088
photoluminescence quantum yield (in CCCC#N): 0.086
photoluminescence quantum yield (in CO): 0.107
photoluminescence quantum yield (in Cc1ccccc1): 0.008
photoluminescence quantum yield (in ClCCl): 0.043

photoluminescence quantum yield (in ClC(Cl)Cl): 0.83
SMILES: CCCCN1c2ccc(/C=C/c3cc(=O)oc4cc(C)ccc34)cc2Sc2cc(/C=C/c3cc(=O)oc4cc(C)ccc34)ccc21

photoluminescence quantum yield (in C1COCCO1): 0.024
photoluminescence quantum yield (in CC#N): 0.009
photoluminescence quantum yield (in CCOC(C)=O): 0.027
photoluminescence quantum yield (in ClC(Cl)Cl): 0.037
photoluminescence quantum yield (in c1ccccc1): 0.047
SMILES: CCOC(=O)c1sc2nc(-c3ccccc3)c(C)c(C#N)c2c1N

photoluminescence quantum yield (in ClC(Cl)Cl): 0.29
SMILES: CCOC(=O)c1ccc(/C=C/C2=[N+]3C(=C(c4ccccc4)c4ccc(/C=C/c5ccc(C(=O)OCC)o5)n4[B-]3(F)F)C=C2)o1

photoluminescence quantum yield (in ClCCl): 0.262
SMILES: COC(=O)c1[nH]c(-c2ccc([N+](=O)[O-])cc2)c2nnc3ccc(OC)cc3c12

photoluminescence quantum yield (in C1CCCCC1): 0.035
photoluminescence quantum yield (in CC#N): 0.012
photoluminescence quantum yield (in CCO): 0.00024
photoluminescence quantum yield (in c1ccccc1): 0.074
SMILES: Nc1cccc2c1-c1ccccc1C2=O

photoluminescence quantum yield (in CC#N): 0.72
SMILES: CC(=O)OC[C@H]1O[C@@H](OCC#Cc2ccc(C3=C4C(C)=CC(/C=C/c5ccc([N+](C)(C)C)cc5)=[N+]4[B-](F)(F)n4c(/C=C/c5ccc([N+](C)(C)C)cc5)cc(C)c43)cc2)[C@H](OC(C)=O)C(OC(C)=O)[C@@H]1OC(C)=O (some centres not stated)

photoluminescence quantum yield (in C1CCCCC1): 0.0085
SMILES: C[Si](C)(C)C#Cc1ccc(C#Cc2cnc(C#Cc3ccccc3)nc2)cc1

photoluminescence quantum yield (in CC#N): 0.1
SMILES: CC1=[N+]2C(=C(c3ccccc3)c3c4c(c(C)n3[B-]2(F)F)CCc2ccccc2-4)C2=C1CCc1ccccc12

photoluminescence quantum yield (in ClC(Cl)Cl): 0.14
SMILES: CN(C)c1ccc(-c2ccc(-c3cc(-c4ccccc4)c(-c4ccccc4)c(-c4ccccc4)c3-c3ccccc3)cc2)cc1

SMILES: CC(C)(C)c1ccc(-c2cc3c4c(c2)CCc2cc(-c5ccc(C(C)(C)C)cc5)cc(c2-4)CC3)cc1
photoluminescence quantum yield (in C1CCCCC1): 0.61
photoluminescence quantum yield (in C1CCOC1): 0.68
photoluminescence quantum yield (in CC#N): 0.55
photoluminescence quantum yield (in CCCCCC): 0.52
photoluminescence quantum yield (in CCO): 0.48
photoluminescence quantum yield (in CN(C)C=O): 0.66
photoluminescence quantum yield (in CO): 0.39
photoluminescence quantum yield (in Cc1ccccc1): 1
photoluminescence quantum yield (in ClC(Cl)Cl): 0.53
photoluminescence quantum yield (in ClCCl): 1

photoluminescence quantum yield (in CCOC(C)=O): 0.99
SMILES: CCn1c(-c2ccc(-c3ccc4ccc5cccc6ccc3c4c56)cc2)c(-c2ccc3ccccc3c2)c(-c2ccc3ccccc3c2)c1-c1ccc(-c2ccc3ccc4cccc5ccc2c3c45)cc1

photoluminescence quantum yield (in ClC(Cl)Cl): 0
SMILES: CC1=CC(C)=[N+]2C1=C(c1ccc(I)cc1)c1c(C)cc(C)n1[B-]21Oc2ccccc2O1

photoluminescence quantum yield (in CS(C)=O): 0.83
SMILES: Cc1ccc(C2C3=C(CCCC3=O)Nc3c2c(=O)oc2ccccc32)cc1 (configuration not stated)

SMILES: O=C1c2cc(F)ccc2-c2cnccc21
photoluminescence quantum yield (in CC#N): 0.015
photoluminescence quantum yield (in CCCCCC): 0.0017
photoluminescence quantum yield (in CCOC(C)=O): 0.02
photoluminescence quantum yield (in Cc1ccccc1): 0.012
photoluminescence quantum yield (in ClCCl): 0.018

SMILES: CCOC(=O)COc1ccc(/C=C/c2cc(C)c3n2[B-](F)(F)[N+]2=C(c4[nH]c(C)cc4C)c4ccccc4C2=C3)cc1
photoluminescence quantum yield (in C1CCOC1): 0.34
photoluminescence quantum yield (in CC#N): 0.3
photoluminescence quantum yield (in CCCCCC): 0.73
photoluminescence quantum yield (in CO): 0.08
photoluminescence quantum yield (in Cc1ccccc1): 0.69
photoluminescence quantum yield (in ClCCl): 0.75

photoluminescence quantum yield (in ClC(Cl)Cl): 0.37
SMILES: CCCCCCCCCCOc1cc(OCCCCCCCCCC)cc(C2=C3C(C)=CC(/C=C/c4ccc(OC)cc4)=[N+]3[B-](F)(F)n3c(/C=C/c4ccc(OC)cc4)cc(C)c32)c1

photoluminescence quantum yield (in C1COCCO1): 0.57
SMILES: c1ccc(-c2nc(-c3nc(-c4ccccc4)c(-c4ccccc4)o3)oc2-c2ccccc2)cc1

photoluminescence quantum yield (in C1CCCCC1): 0.005
photoluminescence quantum yield (in CO): 0.007
SMILES: CN(C)c1ccc(/C=C/c2nc3ccccc3o2)cc1

photoluminescence quantum yield (in C1CCCCC1): 0.66
SMILES: C[Si](C)(C)c1ccc(C#N)c2ccccc12

photoluminescence quantum yield (in CN(C)C=O): 0.91
SMILES: NCCCCCCCCCCCCN1C(=O)c2ccc3c4ccc5c6c(ccc(c7ccc(c2c37)C1=O)c64)C(=O)N(c1ccc(O)cc1)C5=O

SMILES: CCCCC(CC)CN1C(=O)c2cccc3c(C#Cc4ccc(N(c5ccc(C#Cc6ccc7c8c(cccc68)C(=O)N(CC(CC)CCCC)C7=O)cc5)c5ccc(C#Cc6ccc7c8c(cccc68)C(=O)N(CC(CC)CCCC)C7=O)cc5)cc4)ccc(c23)C1=O (configuration not stated)
photoluminescence quantum yield (in C1CCCCC1): 0.064
photoluminescence quantum yield (in C1CCOC1): 0.027
photoluminescence quantum yield (in CC#N): 0.111
photoluminescence quantum yield (in Cc1ccccc1): 0.053
photoluminescence quantum yield (in ClC(Cl)Cl): 0.041

photoluminescence quantum yield (in C1CCCCC1): 0.51
photoluminescence quantum yield (in CC#N): 0.19
photoluminescence quantum yield (in ClC(Cl)Cl): 0.49
SMILES: c1cc2ccc1CCCc1ccc(c3nsnc13)CCC2

photoluminescence quantum yield (in CO): 0.008
SMILES: N#Cc1c(-n2nnc3cc(Cl)ccc32)n([C@H]2C[C@H](O)[C@@H](CO)O2)c2ncnc(N)c12

photoluminescence quantum yield (in ClCCl): 0.12
SMILES: Cc1ccc(-c2c3nc(c(-c4ccc(C)cc4)c4ccc([nH]4)c(-c4ccc(OC(=O)C(C)c5cccc(C(=O)c6ccccc6)c5)cc4)c4nc(c(-c5ccc(C)cc5)c5ccc2[nH]5)C=C4)C=C3)cc1 (configuration not stated)

SMILES: CCCCCCc1ccc(-n2c3c4cccc(OC)c4nnc3c3c2c2nnc4c(OC)cccc4c2n3-c2ccc(CCCCCC)cc2)cc1
photoluminescence quantum yield (in Cc1ccccc1): 0

photoluminescence quantum yield (in CC#N): 0.004
SMILES: N#C/C(=C\c1ccc(Cl)cc1)c1nc(-c2ccccc2)c(-c2ccccc2)s1

SMILES: CCN(CC)/C(C)=N\c1ccc2c3c(cccc13)C(=O)c1ccccc1-2
photoluminescence quantum yield (in C1CCOC1): 0.17
photoluminescence quantum yield (in CCCCCC): 0.21
photoluminescence quantum yield (in CCO): 0.14
photoluminescence quantum yield (in CCOC(C)=O): 0.22
photoluminescence quantum yield (in CN(C)C=O): 0.15
photoluminescence quantum yield (in CO): 0.14
photoluminescence quantum yield (in Cc1ccccc1): 0.56
photoluminescence quantum yield (in ClC(Cl)(Cl)Cl): 0.31
photoluminescence quantum yield (in ClC(Cl)Cl): 0.49
photoluminescence quantum yield (in ClCCl): 0.5
photoluminescence quantum yield (in c1ccccc1): 0.55

photoluminescence quantum yield (in ClCCl): 1
SMILES: CC(C)(C)c1ccc(-n2c(-c3ccc(-c4ccc(N(c5ccccc5)c5ccccc5)cc4)cc3)nc3c4ccccc4c4ccccc4c32)cc1
